Among the data in ChEMBL document CHEMBL1146098, “Synthesis and characterization of 3-arylquinazolinone and 3-arylquinazolinethione derivatives as selective estrogen receptor beta modulators” (J Med Chem, 2006) are IC50 and EC50 values, retold here.

Test [1] has as its target T1, Estrogen receptor (Homo sapiens, UniProt P03372).
T1 sequence (P03372 whole entry): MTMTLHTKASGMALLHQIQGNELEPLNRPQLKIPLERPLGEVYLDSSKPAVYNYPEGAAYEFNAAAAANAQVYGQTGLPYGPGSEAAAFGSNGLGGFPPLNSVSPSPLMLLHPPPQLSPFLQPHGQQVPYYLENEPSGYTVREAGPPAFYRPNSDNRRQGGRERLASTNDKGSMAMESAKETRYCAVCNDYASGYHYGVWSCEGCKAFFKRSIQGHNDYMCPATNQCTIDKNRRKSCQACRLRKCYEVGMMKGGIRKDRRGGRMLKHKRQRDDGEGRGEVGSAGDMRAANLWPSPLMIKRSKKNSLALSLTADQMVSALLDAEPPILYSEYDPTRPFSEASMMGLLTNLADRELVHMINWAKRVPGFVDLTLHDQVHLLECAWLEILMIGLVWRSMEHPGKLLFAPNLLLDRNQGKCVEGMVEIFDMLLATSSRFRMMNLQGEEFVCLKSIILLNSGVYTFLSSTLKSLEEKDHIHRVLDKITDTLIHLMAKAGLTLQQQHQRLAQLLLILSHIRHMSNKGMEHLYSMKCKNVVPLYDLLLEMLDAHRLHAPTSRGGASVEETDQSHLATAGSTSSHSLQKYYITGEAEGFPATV
Description: Displacement of [3H]estrone from ER alpha

Test [2] concerns the target T2, Estrogen receptor beta (Homo sapiens, UniProt Q92731).
In test [3] the target is T2, Estrogen receptor beta. The source holds these as a separate data set.
Description: Inhibition of ER beta-mediated transactivation of ERE in HeLa cell luciferase assay

T2 sequence (Q92731 whole entry): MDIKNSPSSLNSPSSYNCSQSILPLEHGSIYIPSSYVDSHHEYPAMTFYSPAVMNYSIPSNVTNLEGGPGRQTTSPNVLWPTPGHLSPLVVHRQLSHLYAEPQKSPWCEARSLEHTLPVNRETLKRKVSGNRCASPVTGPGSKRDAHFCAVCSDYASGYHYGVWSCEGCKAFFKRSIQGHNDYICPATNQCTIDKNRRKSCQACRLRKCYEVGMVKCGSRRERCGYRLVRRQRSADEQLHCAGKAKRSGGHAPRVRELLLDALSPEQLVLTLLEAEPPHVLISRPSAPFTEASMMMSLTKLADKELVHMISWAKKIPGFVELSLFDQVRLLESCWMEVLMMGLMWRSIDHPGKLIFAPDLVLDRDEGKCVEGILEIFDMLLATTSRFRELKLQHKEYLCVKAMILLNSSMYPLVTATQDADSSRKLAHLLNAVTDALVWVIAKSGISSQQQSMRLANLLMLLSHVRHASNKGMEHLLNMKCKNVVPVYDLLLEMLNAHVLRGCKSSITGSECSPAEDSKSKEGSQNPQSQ

Regarding `CCCc1c(O)cc2ncn(-c3ccc(O)cc3)c(=O)c2c1O`, the IC50 (in general, the concentration needed to halve the response being measured) came to 10.6 µM in test [1] and 7.3 µM in test [2].

With `O=c1[nH]c2cc(O)cc(O)c2c(=O)n1-c1ccc(O)cc1`, the IC50 was found to be 70.3 µM in test [1] and 9.38 µM in test [2]. Also, in test [3], the EC50 (usually the concentration giving half of the maximal effect) turned out to be 1.31 µM.

For `CC(C)c1nc2cc(O)cc(O)c2c(=O)n1-c1ccc(O)cc1`, the concentration for half-maximal inhibition (IC50) in test [1] was 70.4 µM; in test [2] it was 48.1 µM.

For `O=c1c2c(CO)cc(O)cc2ncn1-c1ccc(O)cc1`, the figures for the IC50 in test [1] and in test [2] were 0.121 µM and 0.024 µM, respectively. The compound further returned an EC50 in test [3] of 4.46 µM.

For the compound `CCCCc1nc2cc(O)cc(O)c2c(=O)n1-c1ccc(O)cc1`, the values for the IC50 in test [1] and in test [2] were 0.178 µM and 0.249 µM, respectively.

In the case of `COc1cc(O)cc2ncn(-c3ccc(O)cc3)c(=O)c12`, in test [3], the midpoint of the response, the EC50, lay at 8.51 µM. This counts as single-digit micromolar.

With `Oc1ccc(-c2coc3cc(O)cc(O)c3c2=S)cc1` [THIOGENISTEIN], the IC50 in test [1] was 55.9 µM; in test [2] it was 1.34 µM. This compound also displayed an EC50 in test [3] of 0.014 µM.

On to `O=c1c2c(O)cc(O)cc2ncn1-c1ccccc1`, for which the IC50 in test [1] was found to be 75.6 µM; in test [2], 18.5 µM. This compound also had an EC50 in test [3] of 1.72 µM.

In the case of `Cc1cc(-n2cnc3cc(O)cc(O)c3c2=O)ccc1O`, the IC50 in test [1] is 34.6 µM; in test [2], 7.49 µM. For the same compound, in test [3], a half-maximal effect (EC50) was put at 1.25 µM.

As to `O=c1c2c(O)cc(O)c(I)c2ncn1-c1ccc(O)cc1`, half-maximal inhibition in test [2] (IC50) required 4.08 µM. This compound came in with an EC50 in test [3] of 0.593 µM.

For `Oc1ccc(-n2cnc3cc(O)cc(O)c3c2=S)cc1`, the values for the IC50 in test [1] and in test [2] were 2.64 µM and 0.047 µM, respectively. This compound also returned an EC50 in test [3] of 0.013 µM.

The compound `O=c1c2c(O)c(I)c(O)c(I)c2ncn1-c1ccc(O)cc1` returned an IC50 in test [2] of 12.3 µM. Besides, a half-maximal effect in test [3] (EC50) was put at 1.97 µM.

As to `Nc1cc(O)cc2ncn(-c3ccc(O)cc3)c(=O)c12`, the figures for the half-maximal inhibitory concentration (IC50) in test [1] and in test [2] were 15.5 µM and 8.24 µM, respectively. Also, a half-maximal response in test [3] (EC50) required 2.06 µM.

Regarding `Cc1c(O)cc(O)c2c(=O)n(-c3ccc(O)cc3)cnc12`, the results for the IC50 in test [1] and in test [2] were 15.3 µM and 1.27 µM, respectively. Also, the EC50 in test [3] was 8.87 µM.

Regarding `O=c1c2c(OS(=O)(=O)C(F)(F)F)cc(O)cc2ncn1-c1ccc(O)cc1`, the IC50 in test [2] is 12 µM. In test [3], this compound had an EC50 of 3.8 µM.

Consider `Cc1cc(O)cc2ncn(-c3ccc(O)cc3)c(=S)c12`, for which the IC50 worked out at 1.75 µM in test [1] and 0.079 µM in test [2]. This compound displayed a 50% effective concentration (EC50) in test [3] of 0.222 µM.

As to `Oc1ccc(-n2cnc3cc(O)cc(O)c3c2=S)nc1`, the IC50 came to 27.6 µM in test [1] and 0.515 µM in test [2]. In test [3], the midpoint of the response, the EC50, lay at 0.173 µM.

`COC(=O)c1cc(OC(C)=O)cc2ncn(-c3ccc(OC(C)=O)cc3)c(=S)c12`: in test [3], the midpoint of the response, the EC50, lay at 11.3 µM.

Consider `C=C(C)c1cc(O)cc2ncn(-c3ccc(O)cc3)c(=O)c12`, for which the IC50 in test [1] stood at 44 µM; in test [2], 2.3 µM. In addition, it took 0.729 µM to reach a half-maximal effect in test [3] (EC50).

Regarding `CCc1cc(O)cc2ncn(-c3ccc(O)cc3)c(=S)c12`, the IC50 in test [1] amounted to 2.26 µM; in test [2], 0.156 µM. Besides, the EC50 in test [3] was found to be 0.053 µM.

With `O=c1c2c(O)cc(O)cc2ncn1-c1ccc(O)c(Cl)c1`, the IC50 in test [1] stood at 55 µM; in test [2], 7.21 µM. The compound also had an EC50 in test [3] of 1.18 µM.

`Oc1cc(O)c2c(=S)n(-c3ccc(O)c(F)c3)cnc2c1`: the half-maximal inhibitory concentration (IC50) in test [1] came to 3.08 µM; in test [2], 0.102 µM. The compound further gave an EC50 in test [3] of 0.02 µM.

For `O=c1c2c(-c3ccccc3)cc(O)cc2ncn1-c1ccc(O)cc1`, the IC50 in test [1] amounted to 102 µM; in test [2], 30.7 µM. For the same compound, in test [3], a half-maximal effect (EC50) was put at 11.7 µM.

With `Cc1cc(-n2cnc3cc(O)cc(O)c3c2=S)ccc1O`, the IC50 is 2.85 µM in test [1] and 0.658 µM in test [2]. In test [3], this compound displayed an EC50 of 0.16 µM.

Turning to `COc1cc(O)c2c(=O)n(-c3ccc(O)cc3)cnc2c1`, the IC50 stood at 26 µM in test [1] and 9.53 µM in test [2]. The same compound displayed an EC50 in test [3] of 8.51 µM.

`CCc1nc2cc(O)cc(O)c2c(=O)n1-c1ccc(O)cc1`: the IC50 in test [1] is 19.4 µM; in test [2], 5.75 µM. The same compound yielded a concentration for a half-maximal effect (EC50) in test [3] of 1.26 µM.

Regarding `O=c1c2c(O)cc(O)cc2ncn1-c1ccc(O)c(F)c1`, the IC50 in test [1] was 44.2 µM; in test [2] it was 0.65 µM. The same compound displayed a 50% effective concentration (EC50) in test [3] of 0.117 µM.

As for `CCCc1nc2cc(O)cc(O)c2c(=O)n1-c1ccc(O)cc1`, the IC50 in test [1] was 5.36 µM; in test [2], 3.22 µM.

Regarding `O=c1c2c(O)cc(O)cc2ncn1-c1ccc(O)nc1`, the IC50 in test [1] worked out at 66.9 µM; in test [2], 51.7 µM. The midpoint of the response in test [3], the EC50, lay at 9.76 µM.

Compound `O=c1c2c(O)c(I)c(O)cc2ncn1-c1ccc(O)cc1` came in with an IC50 in test [2] of 3.97 µM. In test [3], this compound returned an EC50 of 1.64 µM.

On to `O=c1c2c(O)cc(O)cc2ncn1-c1cccc(O)c1`, for which the IC50 in test [1] came to 43.8 µM; in test [2], 3.84 µM. In test [3], this compound displayed an EC50 of 0.904 µM.

With `Cc1cc(O)ccc1-n1cnc2cc(O)cc(O)c2c1=O`, the half-inhibitory concentration (IC50) in test [1] was found to be 4.38 µM; in test [2] it was 0.422 µM. This compound also came in with an EC50 in test [3] of 0.111 µM.

In the case of `O=c1c2c(O)cc(O)cc2ncn1-c1ccc(O)cn1`, the IC50 in test [1] is 98 µM; in test [2], 3.53 µM. The compound also returned a 50% effective concentration (EC50) in test [3] of 0.358 µM.

The compound `CCOc1cc(O)cc2ncn(-c3ccc(O)cc3)c(=O)c12` yielded a concentration for half-maximal inhibition (IC50) in test [2] of 44.3 µM. In other words, the double-digit micromolar range.

For `CCc1cc(O)cc2ncn(-c3ccc(O)cc3)c(=O)c12`, the IC50 in test [1] was 13.2 µM; in test [2] it was 0.265 µM. The midpoint of the response in test [3], the EC50, lay at 0.062 µM.

Turning to `Cc1cc(O)cc2ncn(-c3ccc(O)cc3)c(=O)c12`, the IC50 in test [1] amounted to 9.63 µM; in test [2], 0.317 µM. In test [3], the half-maximal effective concentration (EC50) amounted to 0.136 µM.

`COc1cc(O)c2c(=O)n(-c3ccc(O)cc3)c(=S)[nH]c2c1`: in test [2], the IC50 was 72.8 µM. The same compound showed a concentration for a half-maximal effect (EC50) in test [3] of 3.84 µM.

As to `O=c1c2ccc(O)cc2ncn1-c1ccc(O)cc1`, the values for the IC50 in test [1] and in test [2] were 53.6 µM and 8.61 µM, respectively. Also, the EC50 in test [3] was found to be 0.961 µM.

For the compound `O=c1c2c(O)cc(O)cc2ncn1-c1ccc(O)cc1Cl`, the IC50 in test [1] was found to be 6.25 µM; in test [2], 0.263 µM. This compound yielded an EC50 in test [3] of 0.251 µM.

Regarding `N#Cc1cc(O)cc2ncn(-c3ccc(O)cc3)c(=O)c12`, the half-maximal inhibitory concentration (IC50) in test [2] stood at 73.7 µM. In test [3], the half-maximal effective concentration (EC50) is 7.58 µM.

In turn, `O=c1c2c(O)cc(O)cc2nc(Cl)n1-c1ccc(O)cc1` showed an IC50 in test [2] of 13.4 µM. In addition, in test [3], it took 8.78 µM to reach a half-maximal effect (EC50).

Regarding `O=c1c2c(O)cc(O)cc2[nH]c(=S)n1-c1ccc(O)cc1`, the IC50 came out at 11.1 µM in test [1] and 6.99 µM in test [2]. In test [3], the EC50 was 1.99 µM.

With `O=c1c2c(O)cc(O)cc2ncn1-c1ccc(O)cc1F`, the IC50 came to 7.48 µM in test [1] and 0.256 µM in test [2]. In test [3], the EC50 was determined as 0.19 µM.

Consider `O=c1c2c(O)cc(O)cc2ncn1-c1ccc(O)cc1`, for which the IC50 in test [1] worked out at 11.1 µM; in test [2], 0.179 µM. In addition, the EC50 in test [3] turned out to be 0.076 µM.

Take `O=c1c2ccc(O)cc2nc(-c2ccc(O)cc2)n1-c1ccc(O)cc1`: the IC50 in test [1] was found to be 48.5 µM; in test [2], 441 µM.

For `C=Cc1cc(O)cc2ncn(-c3ccc(O)cc3)c(=O)c12`, half-maximal inhibition in test [2] (IC50) was put at 17 µM. In test [3], this compound yielded an EC50 of 0.75 µM.

Turning to `Cc1nc2cc(O)cc(O)c2c(=O)n1-c1ccc(O)cc1`, the IC50 was found to be 33.2 µM in test [1] and 11.4 µM in test [2]. Further, the midpoint of the response in test [3], the EC50, lay at 1.58 µM.

On to `COC(=O)c1cc(O)cc2ncn(-c3ccc(O)cc3)c(=O)c12`, for which the IC50 in test [1] is 81.3 µM; in test [2] it was 9.54 µM. For the same compound, a half-maximal response in test [3] (EC50) required 9.41 µM.
